The record followed here is publication PMC10530652 (BME Frontiers, 2021).

In one data set the target is T1, MMP-2 (Homo sapiens, UniProt P08253).
T1 construct: recombinant MMPs (Enzo Life Sciences) (active domains of MMP-1, MMP-2, MMP-3, MMP-7, MMP-8, MMP-9, MMP-10, MMP-11, MMP-12, and MMP-13); purchased Enzo Life Sciences
Kind of data set: In vitro enzymatic validation of FIB One with recombinant MMP-2 (plate reader). It counts as biochemical. The following applies: MMP 30 nM. Here is the method:
(§1) To determine the enzymatic specificity of FIB One, the probe was incubated at a concentration of 1 μM (unless otherwise stated) with the recombinant MMPs (Enzo Life Sciences) (active domains of MMP-1, MMP-2, MMP-3, MMP-7, MMP-8, MMP-9, MMP-10, MMP-11, MMP-12, and MMP-13, all at 30 nM), thrombin (Sigma Aldrich) (5 U/mL), factor Xa (Sigma Aldrich) (500 nM), plasmin (Sigma Aldrich) (30 nM), and human neutrophil elastase (30 nM). Where appropriate, enzymes were incubated with specific inhibitors for 30 min at 37°C prior to addition of FIB One. […] Enzyme free reactions served as a control. Enzymatic reactions were performed in MMP buffer (10 mM CaCl2, 6.1 g Tris-HCl, 8.6 g NaCl per litre, pH 7.5) in a final volume of 20 μL. Reactions were performed in duplicate in 384-well plates (Life Technologies) with optically clear plate seals (Thermo Scientific) and repeated thrice (independently). Fluorescence signal was measured for up to 60 min, ex/em 485/528 nm using microplate reader (BioTek Synergy H1 multimode reader). Data were normalised to buffer alone and are presented as fold-change in signal (relative fluorescent units, RFU) compared to enzyme-free controls. Data were plotted using Prism 7 (GraphPad Software Inc., La Jolla, CA, USA).

The subject of a further data set is Crl:WI(Han) rats. Kind of data set: Single intratracheal administration toxicity study of FIB One. As to conditions: 100 µg/animal (500 µg/mL). It counts as in vivo. Here is the method: Assessment of toxicity of FIB One was based on clinical signs, body weight, food consumption and clinical and anatomic pathology evaluations. Complete necropsies were performed on all animals with a recording of macroscopic abnormalities for all tissues. Organ weights and microscopic examinations were conducted as indicated.

The subject of data set [1] is primary human lung tissue. Kind of data set: Ex vivo fibre-based (FCFM) imaging of human lung tissue with FIB One. As to conditions: FIB One 1 μM, imaged 10 min, FCFM 488 nm excitation, n=9. Here is the method: Human lung tissue samples (lung tumour and noncancerous adjacent tissue) were obtained following surgical resection and stored at -80° C until use. Processing for multiwell plate reader assay or zymography analysis was conducted as follows: 1 mm×4 mm sections were homogenised in 400 μL MMP buffer in Precellys 2.8 mm ceramic bead tubes (VWR) using a Pecellys 24 homogeniser. Homogenised tissue was adjusted to 4 mg mL^-1 protein (determined by a Pierce BCA Total Protein Assay Kit (Thermo Fisher Scientific), following the manufacturer’s instructions). Multiwell plate reader assays were performed as previously described, replacing the MMP buffer and MMP enzymes for the homogenised and protein-adjusted lung tissue.
For ex vivo imaging, human lung tissue was sliced into 1 mm×4 mm sections and placed in the wells of a 96-well plate with 100 μL of MMP buffer and 30 nM MMP-13. […] The fluorescence for each sample was calculated by determining the average fluorescence per frame for each time point. […] Five independent patient specimens were collected and analysed. RFUs collected from off-target frames (showing motion artefact or absence of any fluorescence) were omitted during analysis.

Another data set addresses T2, MMP-13 (Homo sapiens, UniProt P45452).
T2 construct: recombinant MMPs (Enzo Life Sciences) (active domains of MMP-1, MMP-2, MMP-3, MMP-7, MMP-8, MMP-9, MMP-10, MMP-11, MMP-12, and MMP-13); purchased Enzo Life Sciences
Put plainly: In vitro enzymatic validation of FIB One with recombinant MMP-13 (plate reader). It counts as biochemical. The following applies: MMP 30 nM. Here is the method:
as §1, with “Fluorescence signal was measured for up to 60 min, ex/em 485/528 nm using microplate reader (BioTek Synergy H1 multimode reader).” left out

Data set [2] deals with MMP activity in ex vivo ventilated ovine lung. Put plainly: Ex vivo ovine lung model instilled with OPA supernatant, FCFM imaging. As to conditions: 5 μM FIB One in 1 mL, OPA supernatant-instilled segments, n=3. As to the method: Ovine pulmonary adenocarcinoma (OPA) tissue was homogenised using a drill homogeniser, followed by lysis in cell lysis buffer. The supernatant was collected following centrifugation at 12,000 rpm for 20 min. The samples were adjusted to 1 mg mL^-1 total protein (determined by a Pierce BCA Total Protein Assay Kit (Thermo Fisher Scientific)). Zymography (as described above) was performed to confirm MMP activity across multiple OPA samples. Recombinant MMP-9 (2 nM) and recombinant pro-MMP-9 (0.5 nM) were included in the assay as positive controls. […] Following >30 min, the segments were bronchoscopically identified and microdosed with 5 μM FIB One in 1 mL. FCFM imaging was undertaken pre- and postinstillation (Cellvizio®, Mauna Kea Technologies). This was performed by passing a FCFM fibre into the disparate bronchopulmonary segments (up to 5 passes per bronchopulmonary segment to capture a regional representation of fluorescence), recording images at 12 frames per second and imaging for up to 5 minutes. Videos were analysed as described above. Each experimental set was normalised to the control segment (segment with 1 mL 0.9% NaCl instilled) which represents intrinsic autofluorescence.

Where [3] appears, read: FIB One 1 μM, MMP buffer pH 7.5, ex/em 485/528 nm, fold-change vs enzyme-free control, n=3 in duplicate.
The mark [4] stands for this setting: AZD1236 0.11-14 µM, FIB One 1 µM.

T1 sequence (P08253 110-446 limits assumed): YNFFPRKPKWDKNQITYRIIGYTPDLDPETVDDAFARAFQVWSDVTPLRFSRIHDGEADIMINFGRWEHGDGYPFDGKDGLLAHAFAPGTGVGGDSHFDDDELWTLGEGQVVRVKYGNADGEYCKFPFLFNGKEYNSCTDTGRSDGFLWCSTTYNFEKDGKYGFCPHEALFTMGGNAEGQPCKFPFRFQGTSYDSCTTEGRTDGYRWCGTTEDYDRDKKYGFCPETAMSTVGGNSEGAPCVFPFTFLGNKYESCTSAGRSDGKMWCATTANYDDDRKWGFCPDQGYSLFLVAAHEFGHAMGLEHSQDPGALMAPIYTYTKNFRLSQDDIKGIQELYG

Take (Pro-Phe-Gly-Nle-Lys-βAla)3 [FIB One]: the “fluorescent amplification of FIB One on exposure to enzyme” value at MMP-2 (setting [3]) is “rapid and specific fluorescent amplification”; at MMP-13 (setting [3]), “rapid and specific fluorescent amplification”. The “deaths, clinical signs, body weight, food consumption, clinical or anatomic pathology” value with Crl:WI(Han) rats is “no deaths, no adverse clinical signs and no effects of treatment”. Further, the “cleavage of FIB One” value in data set [1] was “cleaved”. Moreover, on MMP-13 (probes 1 µM, 10 min incubation, n=3 in duplicate), the “signal amplification compared with analogous monomeric linear structure (FRET-monomer)” value is “improved signal amplification”. The “FIB One fluorescence in segments with high MMP activity” value in data set [2] was “diffuse pattern of increased fluorescence”.

For the substance AZD1236, the “inhibition of MMP” value on MMP-2 (setting [4]) and at MMP-13 (setting [4]) was “ability to inhibit” throughout.
